Data on 31 compounds can be found in patent US20220289753A1, “SHP2 INHIBITORS” (IRBM S.P.A., priority 2019, published 2022).

Some results are limits rather than exact numbers.

In this assay the target is T1, SHP-2 enzyme (Met1-Leu525) (Homo sapiens, UniProt Q06124).
T1 construct: synthetized by Origene, Met1-Leu525, cat #TP750155; purchased Origene TP750155
T1 sequence (Q06124 1-525): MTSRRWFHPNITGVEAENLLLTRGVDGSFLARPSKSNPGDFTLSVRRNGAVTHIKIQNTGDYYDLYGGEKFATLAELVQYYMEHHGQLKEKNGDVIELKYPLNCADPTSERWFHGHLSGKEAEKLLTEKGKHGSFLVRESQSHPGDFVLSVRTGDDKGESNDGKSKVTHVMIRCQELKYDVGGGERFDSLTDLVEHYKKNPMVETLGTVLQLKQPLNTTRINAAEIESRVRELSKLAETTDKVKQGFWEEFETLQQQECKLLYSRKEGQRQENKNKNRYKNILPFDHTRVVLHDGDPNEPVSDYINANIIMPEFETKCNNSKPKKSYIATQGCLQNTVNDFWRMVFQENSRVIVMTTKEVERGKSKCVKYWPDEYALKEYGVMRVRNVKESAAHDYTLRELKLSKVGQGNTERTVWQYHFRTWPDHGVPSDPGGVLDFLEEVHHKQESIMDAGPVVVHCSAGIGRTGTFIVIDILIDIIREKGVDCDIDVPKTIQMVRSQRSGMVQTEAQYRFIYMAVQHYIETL
Put plainly: SHP2 inhibition enzymatic assay (DiFMUP substrate, IRS1 peptide activation). Particulars: SHP2 wt; activated by 500 nM IRS1 peptide; 75 μM DiFMUP substrate. The format is biochemical. A digest of the protocol: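 SHP-2 (Met1-Leu525, 0.5 nM final) preincubated 30 min with compounds and IRS1 activating peptide in HEPES pH 7.2 buffer with NaCl, KCl, EDTA, tween-20, 5 mM DTT. DiFMUP then added for 30 min at room temperature and fluorescence read. IC50 from four-parameter logistic fit of % inhibition.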
Regarding `CC1(N)CCN(c2nc3nc(Sc4cccc(C5CC5)c4)cnc3[nH]2)CC1` [Example 46, 1-(5-((3-cyclopropylphenyl)thio)-1H-imidazo[4,5-b]pyrazin-2-yl)-4-methylpiperidin-4-amine], the IC50 lay in the range of 0.5 to 3 µM. Compound `FC(F)(F)c1ncccc1Sc1cnc2[nH]c(NC3CC4(CNC4)C3)nc2n1` [Example 84, N-(2-azaspiro[3.3]heptan-6-yl)-5-((2-(trifluoromethyl)pyridin-3-yl)thio)-1H-imidazo[4,5-b]pyrazin-2-amine] registered an IC50 of 0.5 to 3 µM. On to `FC(F)(F)c1ncccc1Sc1cnc2[nH]c(Nc3ccc4n[nH]cc4c3)nc2n1` [Example 50, N-(2H-indazol-5-yl)-5-((2-(trifluoromethyl)pyridin-3-yl)thio)-1H-imidazo[4,5-b]pyrazin-2-amine], for which the IC50 fell in the range of 0.5 to 3 µM. Compound `COCCn1c(N2CCC(C)(N)CC2)nc2nc(Sc3cccnc3C(F)(F)F)cnc21` [Example 129, 1-(1-(2-methoxyethyl)-5-((2-(trifluoromethyl)pyridin-3-yl)thio)-1H-imidazo[4,5-b]pyrazin-2-yl)-4-methylpiperidin-4-amine] yielded an IC50 of 0.5 to 3 µM. As for `COc1cccc(Sc2cnc3[nH]c(N4CCC(C)(N)CC4)nc3n2)c1` [Example 25, 1-(5-((3-methoxyphenyl)thio)-1H-imidazo[4,5-b]pyrazin-2-yl)-4-methylpiperidin-4-amine], the figure is 0.5 to 3 µM; as for `CC1(N)CCN(c2nc3nc(Sc4ccnc(Br)c4)cnc3[nH]2)CC1` [Example 64, 1-(5-((2-bromopyridin-4-yl)thio)-1H-imidazo[4,5-b]pyrazin-2-yl)-4-methylpiperidin-4-amine], 0.5 to 3 µM; as for `CC1(N)CCN(c2nc3ncc(-c4cccc(Cl)c4Cl)nc3[nH]2)CC1` [Example 131, 1-[5-(2,3-Dichlorophenyl)-1H-imidazo[4,5-b]pyrazin-2-yl]-4-methylpiperidin-4-amine], 0.5 to 3 µM. `NCC1CN(c2nc3nc(Sc4cccnc4C(F)(F)F)cnc3[nH]2)C1` [Example 55, (1-(5-((2-(trifluoromethyl)pyridin-3-yl)thio)-1H-imidazo[4,5-b]pyrazin-2-yl)azetidin-3-yl)methanamine] returned a 50% inhibitory concentration (IC50) of 0.5 to 3 µM. As for `N[C@@H]1CCCC12CCN(c1nc3ncc(N4CCCc5ncccc54)nc3[nH]1)CC2` [Example 120, (R)-8-(6-(3,4-dihydro-1,5-naphthyridin-1(2H)-yl)-1H-imidazo[4,5-b]pyrazin-2-yl)-8-azaspiro[4.5]decan-1-amine], the figure is > 3 µM; as for `CC1(N)CCN(c2nc3nc(Sc4cccc(-c5ccccc5)c4)cnc3[nH]2)CC1` [Example 58, 1-(5-([1,1′-biphenyl]-3-ylthio)-1H-imidazo[4,5-b]pyrazin-2-yl)-4-methylpiperidin-4-amine], 0.5 to 3 µM; as for `NC1CCC2OC1CC2Nc1nc2nc(Sc3cccnc3C(F)(F)F)cnc2[nH]1` (stereo not shown) [Example 109, N6-(5-((2-(trifluoromethyl)pyridin-3-yl)thio)-1H-imidazo[4,5-b]pyrazin-2-yl)-8-oxabicyclo[3.2.1]octane-2,6-diamine], > 3 µM.

In the case of `FC(F)(F)c1ncccc1Sc1cnc2[nH]c(N3C[C@@H]4CC[C@H]3CN4)nc2n1` [Example 90, (1S,4S)-2-(5-((2-(trifluoromethyl)pyridin-3-yl)thio)-1H-imidazo[4,5-b]pyrazin-2-yl)-2,5-diazabicyclo[2.2.2]octane], the IC50 was 0.5 to 3 µM. In the case of `OCCN1CCCN(c2nc3nc(Sc4cccnc4C(F)(F)F)cnc3[nH]2)CC1` [Example 79, 2-(4-(5-((2-(trifluoromethyl)pyridin-3-yl)thio)-1H-imidazo[4,5-b]pyrazin-2-yl)-1,4-diazepan-1-yl)ethan-1-ol] it was 0.5 to 3 µM; in that of `CC1(N)CCN(c2nc3nc(Sc4ccccc4-c4nccs4)cnc3[nH]2)CC1` [Example 102, 4-methyl-1-(5-((2-(thiazol-2-yl)phenyl)thio)-1H-imidazo[4,5-b]pyrazin-2-yl)piperidin-4-amine], > 3 µM; in that of `CC1(N)CCN(c2nc3nc(Sc4cccc(C(F)(F)F)n4)cnc3[nH]2)CC1` [Example 47, 4-methyl-1-(5-((6-(trifluoromethyl)pyridin-2-yl)thio)-1H-imidazo[4,5-b]pyrazin-2-yl)piperidin-4-amine], 0.5 to 3 µM. In the case of `CC1(N)CCN(c2nc3nc(Sc4ccccc4C#N)cnc3[nH]2)CC1` [Example 23, 2-((2-(4-amino-4-methylpiperidin-1-yl)-1H-imidazo[4,5-b]pyrazin-5-yl)thio)benzonitrile] it was < 0.5 µM. The compound `CC1(N)CCN(c2nc3nc(Sc4ccnc5ncccc45)cnc3[nH]2)CC1` [Example 105, 1-(5-((1,8-naphthyridin-4-yl)thio)-1H-imidazo[4,5-b]pyrazin-2-yl)-4-methylpiperidin-4-amine] returned a concentration for half-maximal inhibition (IC50) of 0.5 to 3 µM.

With `OCCN1CCC(CNc2nc3nc(Sc4cccnc4C(F)(F)F)cnc3[nH]2)CC1` [Example 82, 2-(4-(((5-((2-(trifluoromethyl)pyridin-3-yl)thio)-1H-imidazo[4,5-b]pyrazin-2-yl)amino)methyl)piperidin-1-yl)ethan-1-ol], the IC50 is > 3 µM. As for `CC1(N)CCN(c2nc3nc(Sc4cccc5c4C(=O)CC5)cnc3[nH]2)CC1` [Example 76, 7-((2-(4-amino-4-methylpiperidin-1-yl)-1H-imidazo[4,5-b]pyrazin-5-yl)thio)-2,3-dihydro-1H-inden-1-one], the figure is 0.5 to 3 µM; as for `CC(C)(CNc1nc2nc(Sc3cccnc3C(F)(F)F)cnc2[nH]1)Cc1cccnc1` [Example 113, N-(2,2-dimethyl-3-(pyridin-3-yl)propyl)-5-((2-(trifluoromethyl)pyridin-3-yl)thio)-1H-imidazo[4,5-b]pyrazin-2-amine], > 3 µM; as for `NC1CN(c2nc3nc(Sc4cccnc4C(F)(F)F)cnc3[nH]2)C1` [Example 15, 1-(5-((2-(trifluoromethyl)pyridin-3-yl)thio)-1H-imidazo[4,5-b]pyrazin-2-yl)azetidin-3-amine], > 3 µM.

Turning to `CC1(N)CCN(c2nc3nc(Sc4ccc(C(=O)O)cc4)cnc3[nH]2)CC1` [Example 95, 4-((2-(4-amino-4-methylpiperidin-1-yl)-1H-imidazo[4,5-b]pyrazin-5-yl)thio)benzoic acid], the IC50 is < 0.5 µM. Turning to `Cn1nc(-c2ccc(Sc3cnc4[nH]c(N5CCC(C)(N)CC5)nc4n3)s2)cc1C(F)(F)F` [Example 57, 4-methyl-1-(5-((5-(1-methyl-5-(trifluoromethyl)-1H-pyrazol-3-yl)thiophen-2-yl)thio)-1H-imidazo[4,5-b]pyrazin-2-yl)piperidin-4-amine], the IC50 was > 3 µM. Regarding `CC1(N)CCN(c2nc3nc(Sc4cccc5ccncc45)cnc3[nH]2)CC1` [Example 92, 1-(5-(isoquinolin-8-ylthio)-1H-imidazo[4,5-b]pyrazin-2-yl)-4-methylpiperidin-4-amine], the IC50 was < 0.5 µM.

`FC(F)(F)c1ncccc1Sc1cnc2[nH]c(N3CCC34CCNCC4)nc2n1` [Example 44, 2-(1,7-diazaspiro[3.5]nonan-1-yl)-5-((2-(trifluoromethyl)pyridin-3-yl)thio)-1H-imidazo[4,5-b]pyrazine] yielded an IC50 of 0.5 to 3 µM. In the case of `CC1(N)CCN(c2nc3nc(Sc4ccccc4S(C)(=O)=O)cnc3[nH]2)CC1` [Example 117, 4-methyl-1-(5-((2-(methylsulfonyl)phenyl)thio)-1H-imidazo[4,5-b]pyrazin-2-yl)piperidin-4-amine], the IC50 is > 3 µM. `COc1ccc(Sc2cnc3[nH]c(N4CCC(C)(N)CC4)nc3n2)cc1` [Example 45, 1-(5-((4-methoxyphenyl)thio)-1H-imidazo[4,5-b]pyrazin-2-yl)-4-methylpiperidin-4-amine] yielded an IC50 of 0.5 to 3 µM.

As to `Nc1cnc2c(c1)CN(c1nc3nc(Sc4cccnc4C(F)(F)F)cnc3[nH]1)CC2` [Example 108, 6-(5-((2-(trifluoromethyl)pyridin-3-yl)thio)-1H-imidazo[4,5-b]pyrazin-2-yl)-5,6,7,8-tetrahydro-1,6-naphthyridin-3-amine], the IC50 is > 3 µM. As for `CC1(N)CCN(c2nc3nc(Sc4ccc(F)cc4F)cnc3[nH]2)CC1` [Example 20, 1-(5-((2,4-difluorophenyl)thio)-1H-imidazo[4,5-b]pyrazin-2-yl)-4-methylpiperidin-4-amine], the IC50 is < 0.5 µM.

As for `Cc1cc(Cl)ccc1Sc1cnc2[nH]c(N3CCC(C)(N)CC3)nc2n1` [Example 38, 1-(5-((4-chloro-2-methylphenyl)thio)-1H-imidazo[4,5-b]pyrazin-2-yl)-4-methylpiperidin-4-amine], the IC50 was < 0.5 µM. As for `CC1(N)CCN(c2nc3nc(Sc4ccc(C(=O)O)cc4Cl)cnc3[nH]2)CC1` [Example 99, 4-((2-(4-amino-4-methylpiperidin-1-yl)-1H-imidazo[4,5-b]pyrazin-5-yl)thio)-3-chlorobenzoic acid], the IC50 is < 0.5 µM.

As usually defined, the IC50 is the concentration at which inhibition is half-maximal. Lower therefore signals higher potency.
